The values below come from ChEMBL document CHEMBL1157539, “Thousands of chemical starting points for antimalarial lead identification” (Nature, 2010).

This experiment deals with Plasmodium falciparum. Nature of the experiment: GSK_TCMDC: Inhibition of Plasmodium falciparum 3D7 in whole erythrocytes, using parasite LDH activity as an index of growth. The format is functional, organism-based. The conditions noted are these: Plasmodium falciparum, 3D7.

Take `Cc1cccc(CC(=N)NCCCCCCNC(=N)Cc2cccc(C)c2)c1`: the XC50 came out at 167 nM. Regarding `CC(=O)C1(c2ccccc2)CCN(CCC2(c3ccc(Cl)c(Cl)c3)CN(C(=O)C3CCCCC3)CCO2)CC1` (stereo not drawn), the XC50 worked out at 314 nM.

For the molecule `Cc1ccccc1CCNC(=O)c1ccc(N2CCN(c3ccncc3)CC2)nc1`, the XC50 worked out at 1390 nM. For `C=CCOc1ccccc1CNCC(O)c1cccc(C(F)(F)F)c1` (stereo not drawn) the value was 845 nM; for `c1ccc(-c2nnc(-c3ccccn3)nc2NC2CCCCC2)cc1`, 910 nM. On to `COc1cc2nc(N(C)C)nc(Nc3ccc4c(cnn4Cc4ccccc4)c3)c2cc1OC`, for which the XC50 turned out to be 44 nM. For `CC(C)Cn1cc2c(ccc3nc(N)nc(N)c32)n1` the value was 303 nM. Under `COc1ccc2nccc([C@@H](O)CN3CCC(NC(=O)C(c4cc5ccccc5o4)N4CCN(c5ccccc5)CC4)CC3)c2c1` (stereo partly drawn) stands 238 nM. Under `Cc1nc(NC2=NCN(CCCN3CCOCC3)CN2)nc2c(C)cccc12` stands 1130 nM; under `CC1(C)N=C(N)N=C(N)C1c1ccc(Cl)c(Cl)c1` (stereo not drawn), 25.9 nM. As to `Cc1cccc2nc(-c3ccc(-c4ccc(CNCCCNS(C)(=O)=O)cc4)s3)[nH]c12`, the XC50 worked out at 999 nM. `O=c1cc(NCCCNCc2ccc(Cl)c(Cl)c2)[nH]c2ccc(Cl)cc12` came in with an XC50 of 344 nM.

In turn, `Cc1cc2cc(-c3ccc(CN)cc3)ccc2nc1N` came in with an XC50 of 1130 nM.

`CC(CNC(=O)C(c1cc2ccccc2o1)N1CCN(C(c2ccccc2)c2ccccc2)CC1)c1ccccc1` (stereo not drawn): the XC50 amounted to 626 nM. `O=c1cc(NCCC(CNCc2ccc(Br)o2)NCc2cc(Br)cc(Br)c2)[nH]c2ccccc12` (stereo not drawn) showed an XC50 of 860 nM. As to `COc1ccc2[nH]c(C)cc(=NN=Cc3ccc(F)cc3)c2c1`, the XC50 turned out to be 191 nM. For `CCCc1ccc(Nc2nc(C)cc(N(CC)CCCN3CCCCC3)n2)cc1` the value was 543 nM; for `CC(C)CCNC(=N)c1ccc(OCCCCCOc2ccc(C(=N)NCCC(C)C)cc2)cc1`, 534 nM; for `COc1cc(NC(=O)c2sc(-c3ccc(Cl)cc3)cc2NC(=O)CN2CCCC2)ccc1OCCN1CCCC1`, 927 nM. For `CN1CCN(CCCN(Cc2ccc(-c3cccc(CNCc4ccc5c(c4)OCO5)c3)cc2)C(=O)NCCc2ccccc2)CC1` the value was 845 nM; for `Cc1ccccc1C1CCN(C2CCC(NC(=O)/C=C/c3cccc(Cl)c3F)CC2)CC1` (stereo not drawn), 1140 nM. With `O=C(Nc1cccc(CN2CCCN(Cc3ncc[nH]3)CC2)c1)c1ccc(-c2ccccc2)cc1`, the XC50 turned out to be 654 nM. Turning to `COc1ccc(-n2ccnc2SCC(=O)Nc2cc(Cl)ccc2OC)c(OC)c1`, the XC50 turned out to be 734 nM. Under `C=CCn1c(Sc2ccc(C#N)c([N+](=O)[O-])c2)nnc1-c1ccc(OC)cc1` stands 795 nM; under `COc1ccc(C(=O)C2CC2CN(C)CC(O)c2cc(C)c(OC)cc2C)cc1` (stereo not drawn), 968 nM; under `Cc1cccc2nc(-c3cccc(-c4cccc(NC(=O)NCc5ccccc5)c4)c3)[nH]c12`, 521 nM. For `O=C(/C=C/c1ccc(Cl)c(Cl)c1)NCCCCCN1CCCN(C(=O)Nc2cc(Cl)nc(Cl)c2)CC1` the value was 786 nM. Under `CCOc1cc[nH]c(=O)n1` stands 458 nM; under `CCc1c(C(=O)NC2CCC(N3CCC(c4ccccc4OC)CC3)CC2)[nH]c2ccc(Br)cc12` (stereo not drawn), 1120 nM. With `N#Cc1ccc(N(CCOC(=O)c2ccccc2)Cc2ccccc2C(F)(F)F)cc1C(F)(F)F`, the XC50 is 921 nM. In the case of `CCOc1ccc(C(=O)Nc2cc(Br)c3c(c2)CNCC3)cc1C(F)(F)F`, the XC50 is 939 nM.

The molecule `O=C(Nc1cccc(-c2nn3ncccc3c2-c2ccnc(Nc3ccc(N4CCOCC4)cc3)n2)c1)c1c(F)cccc1F` gave an XC50 of 158 nM.

In turn, `Oc1ccc(-c2cncc(NCc3ccc(F)c(F)c3)c2)cc1` gave an XC50 of 768 nM. `Cc1cccc2c(C3CCN(CC4CCC(NC(=O)/C=C/c5ccc(Cl)c(Cl)c5)CC4)CC3)c[nH]c12` (stereo not drawn) displayed an XC50 of 1030 nM. Consider `CN(c1ccc(NC(=O)Nc2cccc(Cl)c2)cc1)c1ccnc(N)n1`, for which the XC50 was 628 nM. For `O=C(Nc1ccc(Oc2ccccc2)cc1)NC1CCC(CN2CCC(c3c[nH]c4ccccc34)CC2)CC1` (stereo not drawn) the value was 573 nM.

In turn, `CC1CN(c2cnn(C/C=C/c3ccc(NC(=O)c4ccc(Cl)cc4)cc3)c(=O)c2Cl)CC(C)N1` (stereo not drawn) yielded an XC50 of 853 nM.

On to `CCCCCC(C)C(C)c1cc(O)c2c3c(c(=O)oc2c1)CN(Cc1ccccc1)CC3` (stereo not drawn), for which the XC50 stood at 605 nM. Under `Nc1nc(N)c2c(ccc3c2ccn3Cc2ccc(Br)cc2)n1` stands 3.2 nM; under `O=C(Nc1cccc(CN2CCCN(Cc3cccnc3)CC2)c1)c1ccc(Cl)c(Cl)c1`, 928 nM. Under `Oc1cccc2c1CC(NCc1ccccc1)CC2` (stereo not drawn) stands 887 nM; under `Cc1ccc(C(=O)Nc2cccc(CN3CCCN(Cc4ccc(O)cc4)CC3)c2)s1`, 1000 nM.

`NC1=NC(c2ccccc2)(c2ccccc2)C(=O)N1Cc1ccc(-c2ccncc2)cc1` came in with an XC50 of 772 nM. For `O=C(NC1CCCc2ccccc21)C1CCCN(C(=O)c2ccc(O)c(-c3ccc(Cl)c(Cl)c3)c2)C1` (stereo not drawn), the XC50 amounted to 1140 nM. As for `Cn1cccc1C(=O)C(=O)Nc1cccc(-c2ccc(-c3nc4cc(C(F)(F)F)ccc4[nH]3)cc2)c1`, the XC50 was 785 nM. For `N=C(N)NN=Cc1c2ccccc2c(Cl)c2c(Cl)cccc12` the value was 878 nM; for `Cc1nc2ccc(F)cc2n1C1CCN(C(=O)Cc2ccc(F)c(F)c2)CC1`, 1410 nM. Under `O=S(=O)(Nc1cccc(F)c1CNCc1ccccn1)c1ccc(Cl)c(Cl)c1` stands 889 nM; under `CCN(CCCN1CCCCC1)c1cc(C)nc(Nc2cc(Cl)ccc2C)n1`, 633 nM. For `CC1CN(Cc2ccc(-c3cccc(-c4nc5cc(F)ccc5[nH]4)c3)cc2)CC(C)O1` (stereo not drawn) the value was 917 nM; for `Cc1cc2nc(N=C3NC4(c5ccccn5)NC(=Nc5nc6cc(C)c(C)cc6[nH]5)NC4(c4ccccn4)N3)[nH]c2cc1C` (stereo not drawn), 683 nM; for `CCCCOc1ccc(C(O)C(CN2CCCCC2)c2ccccc2)cc1` (stereo not drawn), 893 nM.

Molecule `COC(=O)C(c1ccc(NC(=O)[C@H](CC(C)C)NC(=O)OC(C)(C)C)cc1)c1ccc(NC(=O)[C@H](CC(C)C)NC(=O)OC(C)(C)C)cc1` yielded an XC50 of 348 nM. As for `N=C(N)NN=Cc1cc([N+](=O)[O-])ccc1Sc1ccccc1CO`, the XC50 was 1460 nM. As to `CCN(CC)C(=O)C1CCCN(C(=O)Nc2cc(C(F)(F)F)cc(C(F)(F)F)c2)C1` (stereo not drawn), the XC50 is 996 nM. Under `CN1CCC(NCc2ccc(-c3cccc(S(=O)(=O)NCCc4ccccn4)c3)cc2)CC1` stands 993 nM; under `CCn1c(SCc2ccc(F)cc2)nc2sc3c(c2c1=O)CCN(C)C3`, 254 nM. For `COc1ccc2cc(C=NNc3nc4ccccc4[nH]3)c(Cl)nc2c1` the value was 653 nM; for `CCn1c(-c2nonc2N)nc2c(-c3cccc(NC(=O)Nc4ccc(Cl)cc4)c3)ncc(OCCCN)c21`, 828 nM; for `CN(C)CCOc1ccc(-c2cc(-c3ccc(Cl)c(O)c3)c(-c3ccnc(N)n3)o2)cc1`, 1320 nM. For `O=C(/C=C/c1ccc(Cl)c(Cl)c1)NCCCCCN1CCC(NC(=S)Nc2ccc(Cl)cc2)CC1` the value was 443 nM; for `CC1CCCCC1N(C)C1CCN(CCCNC(=O)C=Cc2ccc(Cl)cc2Cl)CC1` (stereo not drawn), 650 nM; for `Cc1nc2ccc3ccc(CNc4ccc5c(c4)CN([C@@H](CCC(=O)O)C(=O)O)C5=O)cc3c2c(=O)[nH]1` [OSI-7904], 164 nM.
